## CC(C)C(N)=O
In 2-butanone, 273.15 K
  solubility (mole fraction): 0.0397
In 2-butanone, 279.15 K
  solubility (mole fraction): 0.045
In 2-butanone, 284.15 K
  solubility (mole fraction): 0.0497
In 2-butanone, 289.15 K
  solubility (mole fraction): 0.0548
In 2-butanone, 293.75 K
  solubility (mole fraction): 0.0597
In 2-butanone, 299.05 K
  solubility (mole fraction): 0.0657
In 2-butanone, 303.75 K
  solubility (mole fraction): 0.0713
In 2-butanone, 308.55 K
  solubility (mole fraction): 0.0773
In 2-butanone, 313.65 K
  solubility (mole fraction): 0.0841
In 2-butanone, 318.25 K
  solubility (mole fraction): 0.0904
In 2-butanone, 323.95 K
  solubility (mole fraction): 0.0988
In THF, 273.15 K
  solubility (mole fraction): 0.0439
In THF, 279.15 K
  solubility (mole fraction): 0.0514
In THF, 284.15 K
  solubility (mole fraction): 0.0585
In THF, 289.15 K
  solubility (mole fraction): 0.0661
In THF, 293.75 K
  solubility (mole fraction): 0.0741
In THF, 299.05 K
  solubility (mole fraction): 0.0837
In THF, 303.75 K
  solubility (mole fraction): 0.093
In THF, 308.55 K
  solubility (mole fraction): 0.103
In THF, 313.65 K
  solubility (mole fraction): 0.115
In THF, 318.25 K
  solubility (mole fraction): 0.126
In THF, 323.95 K
  solubility (mole fraction): 0.141
In acetone, 273.15 K
  solubility (mole fraction): 0.00931
In acetone, 279.15 K
  solubility (mole fraction): 0.0135
In acetone, 283.95 K
  solubility (mole fraction): 0.018
In acetone, 289.15 K
  solubility (mole fraction): 0.0244
In acetone, 293.85 K
  solubility (mole fraction): 0.0317
In acetone, 299.15 K
  solubility (mole fraction): 0.0422
In acetone, 303.45 K
  solubility (mole fraction): 0.0528
In acetone, 309.05 K
  solubility (mole fraction): 0.0703
In acetone, 313.25 K
  solubility (mole fraction): 0.0857
In acetone, 319.15 K
  solubility (mole fraction): 0.114
In acetone, 324.15 K
  solubility (mole fraction): 0.143
In acetonitrile, 273.15 K
  solubility (mole fraction): 0.0122
In acetonitrile, 279.15 K
  solubility (mole fraction): 0.0166
In acetonitrile, 283.95 K
  solubility (mole fraction): 0.021
In acetonitrile, 289.15 K
  solubility (mole fraction): 0.0271
In acetonitrile, 293.85 K
  solubility (mole fraction): 0.0335
In acetonitrile, 299.15 K
  solubility (mole fraction): 0.0424
In acetonitrile, 303.45 K
  solubility (mole fraction): 0.051
In acetonitrile, 309.05 K
  solubility (mole fraction): 0.0645
In acetonitrile, 313.25 K
  solubility (mole fraction): 0.0766
In acetonitrile, 319.15 K
  solubility (mole fraction): 0.0961
In acetonitrile, 324.15 K
  solubility (mole fraction): 0.116
In chloroform, 273.15 K
  solubility (mole fraction): 0.013
In chloroform, 279.15 K
  solubility (mole fraction): 0.0176
In chloroform, 284.15 K
  solubility (mole fraction): 0.0222
In chloroform, 289.15 K
  solubility (mole fraction): 0.0282
In chloroform, 294.15 K
  solubility (mole fraction): 0.0352
In chloroform, 299.15 K
  solubility (mole fraction): 0.0436
In chloroform, 303.75 K
  solubility (mole fraction): 0.0529
In chloroform, 309.15 K
  solubility (mole fraction): 0.0656
In chloroform, 313.15 K
  solubility (mole fraction): 0.0769
In chloroform, 319.15 K
  solubility (mole fraction): 0.0968
In chloroform, 324.75 K
  solubility (mole fraction): 0.119
In cyclohexanone, 273.15 K
  solubility (mole fraction): 0.0267
In cyclohexanone, 279.15 K
  solubility (mole fraction): 0.0333
In cyclohexanone, 284.15 K
  solubility (mole fraction): 0.0398
In cyclohexanone, 289.15 K
  solubility (mole fraction): 0.0473
In cyclohexanone, 293.75 K
  solubility (mole fraction): 0.0551
In cyclohexanone, 299.05 K
  solubility (mole fraction): 0.0653
In cyclohexanone, 303.75 K
  solubility (mole fraction): 0.0756
In cyclohexanone, 308.55 K
  solubility (mole fraction): 0.0873
In cyclohexanone, 313.65 K
  solubility (mole fraction): 0.101
In cyclohexanone, 318.25 K
  solubility (mole fraction): 0.115
In cyclohexanone, 323.95 K
  solubility (mole fraction): 0.135
In cyclopentanone, 273.15 K
  solubility (mole fraction): 0.0441
In cyclopentanone, 279.15 K
  solubility (mole fraction): 0.0544
In cyclopentanone, 284.15 K
  solubility (mole fraction): 0.0642
In cyclopentanone, 289.15 K
  solubility (mole fraction): 0.0754
In cyclopentanone, 293.75 K
  solubility (mole fraction): 0.0871
In cyclopentanone, 299.05 K
  solubility (mole fraction): 0.102
In cyclopentanone, 303.75 K
  solubility (mole fraction): 0.117
In cyclopentanone, 308.55 K
  solubility (mole fraction): 0.134
In cyclopentanone, 313.65 K
  solubility (mole fraction): 0.154
In cyclopentanone, 318.25 K
  solubility (mole fraction): 0.174
In cyclopentanone, 323.95 K
  solubility (mole fraction): 0.201
In ethanol, 273.15 K
  solubility (mole fraction): 0.0474
In ethanol, 279.15 K
  solubility (mole fraction): 0.0599
In ethanol, 283.95 K
  solubility (mole fraction): 0.0715
In ethanol, 289.15 K
  solubility (mole fraction): 0.086
In ethanol, 293.85 K
  solubility (mole fraction): 0.102
In ethanol, 299.15 K
  solubility (mole fraction): 0.121
In ethanol, 303.45 K
  solubility (mole fraction): 0.139
In ethanol, 309.05 K
  solubility (mole fraction): 0.166
In ethanol, 313.25 K
  solubility (mole fraction): 0.189
In ethanol, 319.15 K
  solubility (mole fraction): 0.226
In ethanol, 324.15 K
  solubility (mole fraction): 0.26
In ethyl formate, 273.15 K
  solubility (mole fraction): 0.0121
In ethyl formate, 279.15 K
  solubility (mole fraction): 0.0153
In ethyl formate, 284.15 K
  solubility (mole fraction): 0.0186
In ethyl formate, 289.15 K
  solubility (mole fraction): 0.0223
In ethyl formate, 293.75 K
  solubility (mole fraction): 0.0263
In ethyl formate, 299.05 K
  solubility (mole fraction): 0.0316
In ethyl formate, 303.75 K
  solubility (mole fraction): 0.0371
In ethyl formate, 308.55 K
  solubility (mole fraction): 0.0432
In ethyl formate, 313.65 K
  solubility (mole fraction): 0.0508
In ethyl formate, 318.25 K
  solubility (mole fraction): 0.0583
In ethyl formate, 323.95 K
  solubility (mole fraction): 0.069
In isobutanol, 273.15 K
  solubility (mole fraction): 0.0521
In isobutanol, 279.15 K
  solubility (mole fraction): 0.0633
In isobutanol, 284.15 K
  solubility (mole fraction): 0.0737
In isobutanol, 289.15 K
  solubility (mole fraction): 0.0855
In isobutanol, 293.75 K
  solubility (mole fraction): 0.0976
In isobutanol, 299.05 K
  solubility (mole fraction): 0.113
In isobutanol, 303.75 K
  solubility (mole fraction): 0.129
In isobutanol, 308.55 K
  solubility (mole fraction): 0.146
In isobutanol, 313.65 K
  solubility (mole fraction): 0.166
In isobutanol, 318.25 K
  solubility (mole fraction): 0.186
In isobutanol, 323.95 K
  solubility (mole fraction): 0.213
In isopropanol, 273.15 K
  solubility (mole fraction): 0.0245
In isopropanol, 279.15 K
  solubility (mole fraction): 0.0339
In isopropanol, 283.95 K
  solubility (mole fraction): 0.0433
In isopropanol, 289.15 K
  solubility (mole fraction): 0.0561
In isopropanol, 293.85 K
  solubility (mole fraction): 0.0702
In isopropanol, 299.15 K
  solubility (mole fraction): 0.0901
In isopropanol, 303.45 K
  solubility (mole fraction): 0.109
In isopropanol, 309.05 K
  solubility (mole fraction): 0.139
In isopropanol, 313.25 K
  solubility (mole fraction): 0.166
In isopropanol, 319.15 K
  solubility (mole fraction): 0.211
In isopropanol, 324.15 K
  solubility (mole fraction): 0.257
In methanol, 273.15 K
  solubility (mole fraction): 0.0844
In methanol, 279.15 K
  solubility (mole fraction): 0.0988
In methanol, 283.95 K
  solubility (mole fraction): 0.112
In methanol, 289.15 K
  solubility (mole fraction): 0.127
In methanol, 293.85 K
  solubility (mole fraction): 0.142
In methanol, 299.15 K
  solubility (mole fraction): 0.161
In methanol, 303.45 K
  solubility (mole fraction): 0.177
In methanol, 309.05 K
  solubility (mole fraction): 0.201
In methanol, 313.25 K
  solubility (mole fraction): 0.219
In methanol, 319.15 K
  solubility (mole fraction): 0.247
In methanol, 324.15 K
  solubility (mole fraction): 0.274
In methyl acetate, 273.15 K
  solubility (mole fraction): 0.03
In methyl acetate, 279.15 K
  solubility (mole fraction): 0.0343
In methyl acetate, 284.15 K
  solubility (mole fraction): 0.0381
In methyl acetate, 289.15 K
  solubility (mole fraction): 0.0422
In methyl acetate, 293.75 K
  solubility (mole fraction): 0.0463
In methyl acetate, 299.05 K
  solubility (mole fraction): 0.0513
In methyl acetate, 303.75 K
  solubility (mole fraction): 0.056
In methyl acetate, 308.55 K
  solubility (mole fraction): 0.0611
In methyl acetate, 313.65 K
  solubility (mole fraction): 0.0668
In methyl acetate, 318.25 K
  solubility (mole fraction): 0.0722
In methyl acetate, 323.95 K
  solubility (mole fraction): 0.0794
In n-butanol, 273.15 K
  solubility (mole fraction): 0.0542
In n-butanol, 279.15 K
  solubility (mole fraction): 0.0653
In n-butanol, 284.15 K
  solubility (mole fraction): 0.0756
In n-butanol, 289.15 K
  solubility (mole fraction): 0.0873
In n-butanol, 293.75 K
  solubility (mole fraction): 0.0993
In n-butanol, 299.05 K
  solubility (mole fraction): 0.115
In n-butanol, 303.75 K
  solubility (mole fraction): 0.13
In n-butanol, 308.55 K
  solubility (mole fraction): 0.146
In n-butanol, 313.65 K
  solubility (mole fraction): 0.165
In n-butanol, 318.25 K
  solubility (mole fraction): 0.184
In n-butanol, 323.95 K
  solubility (mole fraction): 0.21
In n-propanol, 273.15 K
  solubility (mole fraction): 0.0352
In n-propanol, 279.15 K
  solubility (mole fraction): 0.047
In n-propanol, 283.95 K
  solubility (mole fraction): 0.0585
In n-propanol, 289.15 K
  solubility (mole fraction): 0.0741
In n-propanol, 293.85 K
  solubility (mole fraction): 0.0909
In n-propanol, 299.15 K
  solubility (mole fraction): 0.113
In n-propanol, 303.45 K
  solubility (mole fraction): 0.135
In n-propanol, 309.05 K
  solubility (mole fraction): 0.169
In n-propanol, 313.25 K
  solubility (mole fraction): 0.198
In n-propanol, 319.15 K
  solubility (mole fraction): 0.245
In n-propanol, 324.15 K
  solubility (mole fraction): 0.294
